The values that follow come from patent US9075281B2, “Colored composition and image display structure” (FUJIFILM CORPORATION, priority 2011, dated 2015).

Holding throughout (assay type): physicochemical
Data set [1] in a line: Measurement of dynamic viscosity. As to conditions: 3% by mass solution in n-decane, 20° C. How it is done:
Here, the dynamic viscosity is a value obtained by measurement at 20° C., using a viscometer (type 500, manufactured by Toki Sangyo Co., Ltd.).
5. Measurement of Dynamic Viscosity
A 3% by mass solution of Exemplary Compound D8-4 in n-decane was prepared, and the viscosity of the dye solution was measured at 20° C. using a viscometer (type 500, manufactured by Toki Sangyo Co., Ltd.).
The dynamic viscosities of the dyes (Exemplary Compounds) employed in Examples were obtained in the same manner, and the results are shown in Table 8.

Data set [2] can be described thus: Measurement of relative permittivity. As to conditions: dye itself, extrapolated from 1, 1.5 and 2% by mass n-hexane solutions; 20° C., 40% RH, 1 kHz. How it is done:
4. Measurement of Relative Permittivity
Solutions of Exemplary Compound D8-4 in n-hexane having concentrations of 1% by mass, 1.5% by mass and 2% by mass, respectively, were prepared, and individually injected into glass cells each having transparent indium-tin-oxide electrodes and a cell gap of 10 μm. The electrical capacities of the resultant cells were measured at 20° C. and 40% RH using a type 2353 LCR meter (manufactured by NF Corporation) at a measurement frequency of 1 kHz. The electrical capacity of n-hexane was also measured as a control sample.
The relative permittivities of the dyes (Exemplary Compounds) employed in the Examples were obtained in the same manner, and the results are shown in Table 7.

A short description of data set [3]: Solubility of the dye in n-hexane. To be noted: in n-hexane at 25° C. and 0.1 MPa. As to the method:
3. Solubility in n-Hexane
The solubility of the dye in a solvent, n-hexane, was determined as follows.
The dye to be measured was dissolved in n-hexane heated at 50° C., to prepare a saturated solution. The saturated solution obtained was then left in an environment of 25° C. and 0.1 MPa for 1 hour. The precipitated dye was filtered, and the precipitation amount was measured, from which the solubility (% by mass) of the dye in n-hexane at 25° C. and 0.1 MPa was calculated.

A short description of data set [4]: Color of colored composition, visually evaluated. As to conditions: n-hexane solution, visual evaluation. An excerpt: 1. Color of Colored Composition
The color of the colored composition was visually evaluated.

A short description of data set [5]: Absorption maximum wavelength, absorbance and absorption coefficient of the colored composition. As to conditions: n-hexane solution, 3% by mass or maximum concentration at which the dye completely dissolves; for Absorption Coefficient (ε): calculated by Lambert-Beer law. As to the method: 2. Absorption Maximum Wavelength, Absorbance and Absorption Coefficient of the Colored Composition
The absorption maximum wavelength (λmax) and the absorbance (abs) of the colored composition were measured using a visible-light spectrophotometer (trade name: UV-1800PC, manufactured by Shimadzu Corporation). The absorption coefficient (∈) was calculated based on the Lambert-Beer law.

Bounds are passed on as bounds.

`CCCCC(CC)CN(CC(CC)CCCC)c1ccc(C=C2C(=O)ON=C2C(C)CC)c(C)c1` (stereo not shown) [D1-1]: in data set [1], the “Dynamic Viscosity (mPa · s)” value is reported as 1.2 mPa·s. In addition, the “Relative Permittivity” value in data set [2] is 8.8.

Take `CCCCC(CC)CN(CC(CC)CCCC)c1ccc(C=C2C(=O)N(C(C)CC)N=C2C(C)CC)c(C)c1` (stereo not shown) [D2-1]: in data set [3], the “Solubility (% by Mass)” value is given as 8.5 % by mass. For the same compound, the “Dynamic Viscosity (mPa · s)” value in data set [1] amounted to 1.3 mPa·s. Moreover, in data set [4], the “Color of Solution” value is recorded as “orange”. Also, in data set [5], the “Absorption Maximum Wavelength (λ max)” value came to 508 nm and the “Absorption Coefficient (ε)” value was 4.40 × 10^4. Moreover, in data set [2], the “Relative Permittivity” value was 8.5.

In the case of `CCCCC(CC)CC1=NN(CC(CC)CCCC)C(=O)C1=Cc1ccc(N(CC)CC)cc1OCC(CC(C)CC(C)CC(C)C)CC(C)CC(C)(C)C` (stereo not shown) [D2-2], in data set [3], the “Solubility (% by Mass)” value is listed as 9.8 % by mass. For the same compound, in data set [5], the “Absorption Maximum Wavelength (λ max)” value is 505 nm and the “Absorption Coefficient (ε)” value is listed as 4.60 × 10^4.

Take `CCCCCCN(CCCCCC)c1ccc(C=C2C(=O)N(CC(CC)CCCC)N=C2C)c(C)c1` (stereo not shown) [D2-5]: the “Solubility (% by Mass)” value in data set [3] is 3.0 % by mass. Moreover, the “Dynamic Viscosity (mPa · s)” value in data set [1] is 1.2 mPa·s. The “Color of Solution” value in data set [4] is given as “orange”. For the same compound, in data set [5], the “Absorption Maximum Wavelength (λ max)” value is reported as 510 nm and the “Absorption Coefficient (ε)” value is 4.30 × 10^4. Moreover, the “Relative Permittivity” value in data set [2] is recorded as 8.0.

As to `CCCCC1=NN(CCCC)C(=O)C1=Cc1ccc(N(CCCC)CCCC)cc1C` [D2-101, reference compound], the “Solubility (% by Mass)” value in data set [3] came to 0.1 % by mass. Moreover, the “Color of Solution” value in data set [4] is recorded as “orange”. Further, in data set [5], the “Absorption Maximum Wavelength (λ max)” value was 510 nm and the “Absorption Coefficient (ε)” value is listed as 4.25 × 10^4.

In the case of `CCCCC(CC)CN(CC(CC)CCCC)c1ccc(C=C2C(=O)N(C(C)CC)C(=O)C(C#N)=C2C(C)CC)c(C)c1` (stereo not shown) [D3-1], the “Solubility (% by Mass)” value in data set [3] is 6.2 % by mass. Further, in data set [1], the “Dynamic Viscosity (mPa · s)” value was found to be 1.2 mPa·s. In addition, in data set [5], the “Absorption Maximum Wavelength (λ max)” value stood at 528 nm. Moreover, in data set [2], the “Relative Permittivity” value was 9.5.

As for `CCCCC(CC)CN1C(=O)C(=Cc2ccc(N(CCCC)CCCC)cc2OCC(CC(C)CC(C)CC(C)C)CC(C)CC(C)(C)C)C(C)=C(C#N)C1=O` (stereo not shown) [D3-2], the “Solubility (% by Mass)” value in data set [3] is on record as ≥ 10 or % by mass. Also, in data set [5], the “Absorption Maximum Wavelength (λ max)” value stood at 525 nm.

On to `CCCCCCOc1cc(N(CCCC)CCCC)ccc1C=C1C(=O)N(CCCC)C(=O)C(C#N)=C1C` [D3-101, reference compound], for which the “Solubility (% by Mass)” value in data set [3] is on record as “≦0.01 % by mass”.

As to `CCCCC(CC)CNc1ccc(NCC(CC)CCCC)c2c1C(=O)c1ccccc1C2=O` (stereo not shown) [D4-2], the “Solubility (% by Mass)” value in data set [3] amounted to 3.6 % by mass. Further, the “Dynamic Viscosity (mPa · s)” value in data set [1] was found to be 1.3 mPa·s. Also, the “Color of Solution” value in data set [4] is recorded as “blue”. Also, the “Absorption Maximum Wavelength (λ max)” value in data set [5] is on record as 640 nm. In addition, the “Relative Permittivity” value in data set [2] is given as 6.5.

On to `CCCCCCNc1ccc(NCCCCCC)c2c1C(=O)c1ccccc1C2=O` [D4-101, reference compound], for which the “Solubility (% by Mass)” value in data set [3] came out at 0.1 % by mass. Further, the “Color of Solution” value in data set [4] is reported as “blue”. Also, the “Absorption Maximum Wavelength (λ max)” value in data set [5] is reported as 642 nm.

Consider `CCCCC(CC)COc1cc(N(CC(CC)CCCC)CC(CC)CCCC)ccc1N=C1C(=O)N(CC(CC)CCCC)N=C1C` (stereo not shown) [D6-1], for which the “Solubility (% by Mass)” value in data set [3] was ≥ 10 or % by mass. Besides, the “Dynamic Viscosity (mPa · s)” value in data set [1] turned out to be 1.2 mPa·s. In addition, the “Absorption Maximum Wavelength (λ max)” value in data set [5] worked out at 505 nm. Also, the “Relative Permittivity” value in data set [2] was 7.5.

For the compound `CCCCC(CC)CC1=NN(CC(CC)CCCC)C(=O)C1=Nc1ccc(N(CC)CC)cc1OCC(C)(CC(C)CC(C)C)CC(C)CC(C)(C)C` (stereo not shown) [D6-2], the “Solubility (% by Mass)” value in data set [3] is ≥ 10 or % by mass. In addition, the “Absorption Maximum Wavelength (λ max)” value in data set [5] was found to be 500 nm.

Take `CCCCCCOc1cc(N(CC)CC)ccc1N=C1C(=O)N(CCCC)N=C1C` [D6-101, reference compound]: in data set [3], the “Solubility (% by Mass)” value was determined as 0.1 % by mass. Moreover, in data set [4], the “Color of Solution” value is “orange”. For the same compound, in data set [5], the “Absorption Maximum Wavelength (λ max)” value worked out at 500 nm.

Regarding `CCCCCCCCN1c2cc(C)c(/N=C3/C(C)=Nn4nc(C(C)CNC(=O)C(CCCCCC)Oc5ccc(C(C)(C)CC)cc5C(C)(C)CC)nc43)cc2C(C)CC1(C)C` (stereo not shown) [D8-2], in data set [3], the “Solubility (% by Mass)” value is recorded as ≥ 10 or % by mass. Moreover, the “Color of Solution” value in data set [4] is “red”. In addition, in data set [5], the “Absorption Maximum Wavelength (λ max)” value is listed as 542 nm.

For `CCCCCC(CC)c1nc2n(n1)N=C(C(C)CC)/C2=N/c1ccc(N(CC(CC)CCCC)CC(CC)CCCC)cc1C` (stereo not shown) [D8-4], in data set [3], the “Solubility (% by Mass)” value was ≥ 10 or % by mass. For the same compound, the “Dynamic Viscosity (mPa · s)” value in data set [1] was 1.3 mPa·s. Besides, in data set [4], the “Color of Solution” value was “red”. Moreover, the “Absorption Maximum Wavelength (λ max)” value in data set [5] came to 562 nm. Also, the “Relative Permittivity” value in data set [2] is 7.8.

Take `CCCCC(CC)CNC(=O)c1cc(N(CC(CC)CCCC)CC(CC)CCCC)ccc1/N=C1/C(CC)=Nn2nc(C(C)C)nc21` (stereo not shown) [D8-9]: the “Dynamic Viscosity (mPa · s)” value in data set [1] is 1.3 mPa·s. Moreover, the “Relative Permittivity” value in data set [2] is listed as 7.7.

Take `CCCCCCCCN1c2cc(C)c(/N=C3/C(C)=Nn4nc(C(C)(C)C)nc43)cc2C(C)CC1(C)C` (stereo not shown) [D8-101, reference compound]: the “Solubility (% by Mass)” value in data set [3] was 0.8 % by mass. In addition, in data set [4], the “Color of Solution” value was “red”. The “Absorption Maximum Wavelength (λ max)” value in data set [5] is 541 nm.

With `CCCCCCCCN1c2cc(C)c(/N=C3\C(C#N)=C(C(=O)OC4C(C(C)(C)C)CC(C)CC4C(C)(C)C)c4nc(C(C)CCCC)nn43)cc2C(C)CC1(C)C` (stereo not shown) [D9-2], the “Solubility (% by Mass)” value in data set [3] is 2.2 % by mass. The “Color of Solution” value in data set [4] is on record as “blue”. Further, in data set [5], the “Absorption Maximum Wavelength (λ max)” value stood at 616 nm.

On to `CCCCC(CC)CN(CC(CC)CCCC)c1ccc(/N=C2\C(C#N)=C(C(=O)OC3C(C(C)(C)C)CC(C)CC3C(C)(C)C)c3nc(C(CC)CCCC)nn32)c(C(C)CC)c1` (stereo not shown) [D9-3], for which, in data set [2], the “Relative Permittivity” value is given as 7.6.

With `CCCCC(CC)CN(CC(CC)CCCC)c1ccc(/N=C2\C(C#N)=C(C(=O)OC3C(C(C)(C)C)CC(C)CC3C(C)(C)C)c3nc(C(C)(C)C)nn32)c(C(=O)N(CCCC)CCCC)c1` (stereo not shown) [D9-4], in data set [2], the “Relative Permittivity” value is 5.6.

Turning to `CCCCC(CC)CN(CC(CC)CCCC)c1ccc(/N=C2\C(C#N)=C(C(=O)OC3C(C(C)(C)C)CC(C)CC3C(C)(C)C)c3nc(C(C)(C)C)nn32)cc1` (stereo not shown) [D9-5], the “Solubility (% by Mass)” value in data set [3] is listed as ≥ 10 or % by mass. Also, in data set [1], the “Dynamic Viscosity (mPa · s)” value was 1.2 mPa·s. Further, the “Color of Solution” value in data set [4] was “blue”. In addition, the “Absorption Maximum Wavelength (λ max)” value in data set [5] is given as 600 nm. For the same compound, the “Relative Permittivity” value in data set [2] was 6.5.

Regarding `CCCCC(CC)CNC(=O)c1cc(N(CC(CC)CCCC)CC(CC)CCCC)ccc1/N=C1\C(C#N)=C(C(=O)OC2C(C(C)(C)C)CC(C)CC2C(C)(C)C)c2nc(C(C)(C)C)nn21` (stereo not shown) [D9-6], the “Solubility (% by Mass)” value in data set [3] is ≥ 10 or % by mass. In addition, the “Dynamic Viscosity (mPa · s)” value in data set [1] is 1.2 mPa·s. In data set [4], the “Color of Solution” value is “blue”. The “Absorption Maximum Wavelength (λ max)” value in data set [5] came out at 650 nm. Further, in data set [2], the “Relative Permittivity” value is recorded as 6.2.

In the case of `CCN(CC)c1ccc(/N=C2\C(C#N)=C(C(=O)OC)c3nc(-c4ccc(C(C)(C)C)cc4)nn32)c(C)c1` [D9-101, reference compound], the “Solubility (% by Mass)” value in data set [3] is ≤ 0.05 or % by mass.

With `CCCCC(CC)CNC(=O)C1=CC(=Nc2ccc(N(CC(CC)CCCC)CC(CC)CCCC)cc2C)c2ccccc2C1=O` (stereo not shown) [D10-1], the “Dynamic Viscosity (mPa · s)” value in data set [1] stood at 1.3 mPa·s. In addition, the “Relative Permittivity” value in data set [2] is reported as 4.2.
